These results are taken from patent publication US12558340B2, “ANAVEX2-73 for the treatment of genetic neurodevelopmental disorders” (ANAVEX LIFE SCIENCES CORP., priority 2019, dated 2026).

The nature of one series: physchem. It counts as physicochemical. An excerpt:
Dosage formulations used in the disclosed methods comprise a therapeutically effective amount of ANAVEX2-73, the crystalline HCI salt of tetrahydro-N,N-dimethyl-2,2-diphenyl-3-furanmethanamine, or tetrahydro-N,N-dimethyl-2,2-diphenyl-3-furanmethanamine hydrochloride (IUPAC name: 1-(2,2-diphenyloxolan-3-yl)-A/,A/-dimethylmethanamine hydrochloride). […] Thus ANAVEX2-73 (used herein to refer to the HCI salt or the free base) is highly amenable to incorporation in the dosage formulations disclosed herein. For example, ANAVEX2-73 as either the HCI salt or the free base has a relatively low molecular weight (<400 Da), and is thus well suited for transmucosal or transdermal delivery, or rapid oral delivery. ANAVEX2-73 has a pKa around 8-9, which also makes it well-suited for transmucosal delivery. Therapeutically effective doses of ANAVEX2-73 are well suited for various thin film formulations, including oral and transdermal thin film formulations.

The test system of series [1] is subject diagnosed with Rett Syndrome. The series can be described thus: Example 1: liquid formulation given to a subject with Rett Syndrome. It counts as in vivo, human. The following applies: 5 mL of a liquid formulation (0.2 mg/mL). The method, then: A subject diagnosed with Rett Syndrome was administered 5 mL of a liquid formulation (0.2 mg/mL).
The test system of series [2] is female subjects diagnosed with Rett Syndrome. The series can be described thus: Example 5: 7-week daily treatment of Rett Syndrome subjects (RSBQ, CGI-I). It counts as in vivo, human. On the procedure:
Six female subjects ranging from 16 to 22 years of age diagnosed with Rett Syndrome were administered 5 mg ANAVEX2-73 liquid formulation (1 m_of a 5 mg/mI_ANAVEX2-73 solution) daily for a total daily dose of […], over a period of 7 weeks.
(§1) For efficacy, the following parameters were measured in the female subjects: Rett Syndrome Behavior Questionare (RSBQ), Clinical Global Impressions (CGI-I), hand behaviors (RSBQ), breathing problems (RSBQ), waking during sleep (RSBQ), and glutamate biomarker, and GABA biomarkers.
Evaluation of the efficacy was measured as a comparison from baseline (week 0), week 4, and to end of treatment (week 7). Blood plasma samples were analyzed at week 0 and at week 7 to measure the levels of glutamate and GABA biomarkers. The evaluation of efficacy used a two-tailed statistical analysis.

In series [3] the test system is glutamate biomarker in plasma. The series can be described thus: Example 5: glutamate biomarker in plasma of Rett Syndrome subjects. The series is classed as in vivo, human. The note with it: week 0 vs week 7; Wilcoxon p (2-tailed)=0.046.
Text: In one aspect, the method further comprises measuring, or having measured or obtained a baseline biomarker level in the subject prior to treatment with ANAVEX2-73 as described herein, wherein the biomarker comprises plasma glutamate, gamma aminobutyric acid (GABA), PI3K, pAkt, mTOR, pMAPK, pERK, or any combinations thereof, and measuring or having measured or obtained at least a second level of the biomarker following a period of treatment with ANAVEX2-73 as described herein. […]
as §1
Evaluation of the efficacy was measured as a comparison from baseline (week 0), week 4, and to end of treatment (week 7). Blood plasma samples were analyzed at week 0 and at week 7 to measure the levels of glutamate and GABA biomarkers. […]

The test system of series [4] is subject diagnosed with Rett Syndrome. The series can be described thus: Example 6: liquid formulation given to a subject with Rett Syndrome. It counts as in vivo, human. The following applies: 1 mL of a liquid formulation (0.2 mg/mL). On the procedure: A subject, diagnosed with Rett Syndrome is administered 1 mL of a liquid formulation (0.2 mg/mL).
The next series has as its system pAkt. The series can be described thus: pAkt levels in peripheral lymphocytes of Fmr1 KO2 mice (flow cytometry). It counts as in vivo. On the procedure:
(§2) In the aforementioned study by Reyes et al., ANAVEX2-73 or saline were administered twice daily at a dose of 1 mg/kg IP, to 2-month-old Fmr1 KO2 mice and wild type counterparts (N=10 mice per group, 40 mice total; for blood sample analyses: 5-7 mice per group) for two weeks. Brain samples were harvested for biochemical and molecular studies, blood samples were collected at baseline and on the last day of the behavioral assessments. Complementary cell signaling analyses were also conducted. These analyses were important because of their relevance to both preclinical and clinical research in FXS. Peripheral lymphocytes were isolated and stimulated with Phorbol-12-Myristate-13-Acetate in a buffer without phosphatase inhibitors but with U0126 (inhibitor of MAPK kinase). […] Resuspended cells were analyzed in a Coulter XL3 flow cytometer. […] Levels of pAkt and pERK were first characterized in terms of distribution, by the Shapiro-Wilk test of normality and Levene's and Bartlett's tests, which determined that all data were distributed normally and had equal variances. […] Once a significant difference was found, a two-way univariate ANOVA with genotype and treatment as between-subject factors, followed by a Tukey's post-hoc test, evaluated the differences between drug-treated and vehicle-treated WT and Fmr1 KO2 mice. […]

For another series, the system named is pERK. The series can be described thus: pERK levels in peripheral lymphocytes of Fmr1 KO2 mice (flow cytometry). It counts as in vivo. The following applies: 1 mg/kg IP twice daily for two weeks, 7 per group, t-test p=0.046, post-hoc p=0.096. On the procedure:
as §2

For series [5], the system named is Fmr1 knockout 2 mice, KO2. The note with it: 1 mg/kg IP twice daily for two weeks; cited from earlier work.
A further series relates to BDNF. The note with it: 1 mg/kg IP twice daily for two weeks; cited from earlier work.
The test system of a further series is healthy male volunteers. The note with it: cited from earlier work.

Structures are written as SMILES.

As for `CN(C)CC1CCOC1(c1ccccc1)c1ccccc1.Cl` (stereo not drawn) [ANAVEX2-73, tetrahydro-N,N-dimethyl-2,2-diphenyl-3-furanmethanamine hydrochloride], in “physchem”, the chemical stability entry is reported as “excellent”, the pKa lay in the range of 8 to 9, the “solubility in organic solvents” value is “soluble in almost all organic solvents” and the water solubility result is “high”. Further, in [1], the cognition entry is “improvement” and the motor skills result was “improvement”. For the same molecule, the “RSBQ and CGI-I” value in [2] (after 7 weeks, p=0.003) is reported as “reduction”. In series [2] (all six subjects, 5 mg liquid formulation daily, week 0 vs week 7), the “improvement in the RSBQ (total score)” value is “over 30%”. For the same molecule, in [2] (compared to week 0, p=0.042), the “breathing problems (RSBQ)” value was “improvement”, the “hand behaviors (RSBQ)” value is recorded as “improvement” and the “waking during sleep (RSBQ)” value was “improvement”. Also, in series [3], the “levels of glutamate biomarker in plasma” value was “decreased significantly”. In addition, in [4], the CGI-I index entry is “improvement” and the “Rett Syndrome Behavior Questionnaire (RSBQ)” value is reported as “improvement”. The “pAkt levels, drug-treated vs vehicle-treated Fmr1 KO2 mice” value with pAkt (1 mg/kg IP twice daily for two weeks, 5 animals per group, p=0.01) was “significantly lower”. In the series on pAkt (ANOVA), the “pAkt levels, drug-treated mutant mice vs vehicle-treated WT mice” value is reported as “comparable”. For the same molecule, in the series on pERK, the “pERK levels, drug-treated vs vehicle-treated Fmr1 KO2 mice” value is on record as “mildly reduced”. In addition, the “three neurobehavioral phenotypes (open field test, contextual fear conditioning, marble-burying)” value in [5] was “marked improvement or normalization”. Moreover, the “BDNF levels in the hippocampus” value in the series on BDNF is recorded as “normalized”. Besides, the safety and tolerability result with healthy male volunteers (ascending single oral doses of 1, 10, 30, 40, 50 and 55 mg, healthy subjects) was “safe and well tolerated”. Besides, the observed adverse events entry in the series on healthy male volunteers (at highest doses) was “only moderate and reversible dizziness and headache”. For the same molecule, the “minimum intolerable dose (MID)” value in the series on healthy male volunteers (human, in vivo, po) is 60 mg. The serious adverse events entry in the series on healthy male volunteers (single ascending oral doses) is listed as “No serious adverse events occurred”. Moreover, the “maximum tolerable dose (MTD)” value in the series with healthy male volunteers (single oral dose, based on frequency and intensity of adverse events) is on record as 55 mg.
